In article PMC7291858, “An Enhanced Variant Designed From DLP4 Cationic Peptide Against Staphylococcus aureus CVCC 546” (Frontiers in Microbiology, 2020):
≈ marks a conversion by molar mass, not a printed value. Where “and” joins values, the source holds several entries; their conditions need not be identical. Identical values can stand only once. Ends that are not written are not given here. Peptide text beside a SMILES is read from it.

Columns and labels:
[1] = test system: S. aureus ATCC 43300; format: cell-based, Staphylococcus aureus; conditions: microtiter, serial 2-fold dilutions, 37°C, 16∼20 h, triplicate; – = no activity
How it was run: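 MIC values come from triplicate microtiter plate tests in which serial 2-fold peptide dilutions were incubated with bacteria at 37°C for 16∼20 h; no visible growth defined the endpoint.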

[2] = test system: Staphylococcus aureus CVCC 546; test: microbe, parasite or virus in culture; format: cell-based
Procedure: (§1) The minimal inhibitory concentration (MIC) was evaluated by a microtiter plate assay ([Wiegand et al., 2008]). Serial 2-fold dilutions of test peptides were placed into a 96-well plate containing identical bacterial inoculum and incubated at 37°C for 16∼20 h. Vancomycin was used as antibiotic control. The MIC value was defined as the lowest peptide concentration where no visible growth occurred. All tests were made in triplicate.

[3] = test system: S. epidermidis ATCC 12228; test: MIC, microtiter plate assay; format: cell-based, Staphylococcus epidermidis; conditions: 16∼20 h, triplicate
Procedure: as §1

[4] = test system: S. suis CVCC 3928; test: MIC, microtiter plate assay; format: cell-based, Streptococcus suis; conditions: 16∼20 h, triplicate
Procedure: as §1

[5] = test system: Escherichia coli ATCC 25922; test: MIC, microtiter plate assay; format: cell-based; conditions: 16∼20 h, triplicate
Procedure: as §1

[6] = test system: Salmonella pullorum CVCC 533; test: MIC, microtiter plate assay; format: cell-based; conditions: 37°C, 16∼20 h, triplicate
Procedure: as §1

[7] = test system: Streptococcus pneumoniae CVCC 2350; test: MIC, microtiter plate assay; format: cell-based; conditions: 16∼20 h, triplicate
Procedure: as §1

[8] = test system: E. coli K88; test: MIC, microtiter plate assay; format: cell-based, Escherichia coli; conditions: 16∼20 h, triplicate
Procedure: as §1

[9] = test system: S. enteritidis CVCC 3377; test: MIC, microtiter plate assay; format: cell-based, Salmonella enteritidis; conditions: 37°C, 16∼20 h, triplicate
Procedure: as §1

[10] = test system: mouse erythrocytes; test: Hemolytic activity; format: cell-based; conditions: 128 μg/mL, 8% (v/v) mouse erythrocytes in PBS, 1 h, 37°C, absorbance 576 nm, n = 3
Procedure: Hemolytic activity of peptides was evaluated with fresh mouse erythrocytes. Briefly, fresh mouse erythrocytes were collected, washed, and resuspended to a concentration of 8% (v/v) in PBS. Then, an aliquot of erythrocyte solution was added to 96-well plates containing an equal volume of peptide solution (1∼256 μg/mL) and was incubated for 1 h at 37°C. The erythrocyte suspension treated with 0.1% Triton X-100 and left untreated was employed as positive and negative controls, respectively. After centrifugation at 2000 rpm for 5 min, the supernatant was measured using a microplate reader at 576 nm. The percent hemolysis was calculated using the following formula: Percenthemolysis = [(A − A0)/(A100 − A0)] × 100%, where A, A100, and A0 represent the absorbance of the peptide sample and positive and negative controls, respectively.

[11] = test system: mouse macrophage RAW 264.7; test: Cytotoxicity, MTT assay; format: cell-based; conditions: 256 μg/mL, RAW 264.7, MTT, n = 4
Procedure: The cytotoxicity of peptides toward mouse macrophage RAW 264.7 was evaluated by the MTT assay as described previously ([Wang X. et al., 2018]).

[12] = test system: S. aureus CVCC 546; test: Membrane permeabilization, PI flow cytometry; format: cell-based, Staphylococcus aureus; conditions: 2 × MIC, 0.5 h, 10^8 CFU/mL, n = 3
Procedure: The effects of peptides on membrane permeabilization were measured by flow cytometry ([Zhu et al., 2018]). […] Cells untreated and treated with 2 × MIC DLP4 or vancomycin were used as blank and positive controls. The fluorescence of the dye was monitored at an excitation wavelength of 488 nm and an emission wavelength of 635 nm.

[13] = test system: S. aureus CVCC 546; test: Potassium ion (K+) leakage; format: cell-based, Staphylococcus aureus; conditions: 1 × MIC, treated for 150 min, 0.9% saline, 10^8 CFU/mL, ICP, n = 3
Procedure: To further investigate the effects of peptides on membrane integrity, K^+ leakage determination was carried out as previously described ([Miao et al., 2016]). Briefly, S. aureus CVCC 546 cells were centrifuged, washed, and resuspended in 0.9% sterile saline. The cell suspension (10^8 CFU/mL) was treated with peptides at 1 × MIC. Cells untreated and treated with DLP4 or nisin were used as blank and positive controls. At time intervals of 30, 60, 90, 120, and 150 min, the suspensions were centrifuged at 12000 rpm for 5 min. The supernatants were then subjected to measurement by Agilent inductively coupled plasma optical emission (ICP-OES).

[14] = test system: S. aureus CVCC 546 gDNA; test: Gel retardation assay of gDNA binding; parameters: species or system Staphylococcus aureus; conditions: 10 min incubation, 1% agarose gel, ratios 0-5 (w/w)
Procedure: A gel retardation assay ([Zhao et al., 2019]) was utilized to analyze the binding of peptides to genomic DNA (gDNA) extracted from S. aureus CVCC 546 with TIANamp Bacteria DNA Kit (TIANGEN Biotech Co., Ltd., Beijing). The peptides were incubated for 10 min with gDNA at different ratios of 0–5.0 (w/w) and then loaded on 1% agarose gel for electrophoresis analysis.

[15] = test system: S. aureus CVCC 546; test: Time-kill assay; format: cell-based, Staphylococcus aureus; conditions: 2 × MIC, MHB, 10^5 CFU/mL, 37°C, n = 3
Source text: Time-kill assay was used to assess the killing rates of S. aureus cells by AMPs in vitro, done by measuring the number of viable bacteria left at various times after exposure to the peptides. […] At different time intervals, a certain sample was taken, serially diluted, and plated on MHA for colonies counting. Cells treated with 2 × MIC DLP4 or vancomycin and left without treatment were used as the positive and blank controls, respectively ([Flamm et al., 2019]).

[16] = test system: S. aureus CVCC 546; test: Post-antibiotic effect (PAE); format: cell-based, Staphylococcus aureus; conditions: 2 × MIC, 2 h exposure, mean ± SD, n = 3
Procedure: The PAE was determined by exposing S. aureus cells to antimicrobial agent at 1×, 2×, or 4 × MIC for 2 h. After drug removal by dilution, the bacterial culture was incubated at 37°C and 250 rpm. An aliquot of samples (50 μL) were taken for CFU counts at different time intervals until bacterial cultures became turbid. Bacteria treated with DLP4 or vancomycin and left without treatment were used as the positive and blank controls, respectively. The PAE was calculated using the following formula: PAE = T − C, where T is the time for the CFU counts to increase by 10-fold above the count observed immediately after drug removal, and C is the corresponding time for the untreated control ([Oh et al., 2019]).

[17] = test system: S. aureus CVCC 546; test: Mouse thigh infection model, CFU in thigh muscle; format: in vivo, mouse (female CD-1); conditions: 10 mg/kg single i.p. dose 2 h post-infection, read 24 h post-infection, n = 6
Procedure: (§2) Mouse experiments were carried out at Gene Engineering Laboratory, Feed Research Institute of Chinese Academy of Agricultural Sciences (CAAS) and complied with institutional animal care and use policies and procedures (AEC-CAAS-20090609). All animal studies were performed with female CD-1 mice, 6∼7 weeks old.
(§3) S. aureus CVCC 546 in the exponential phase were resuspended in MHB and adjusted to 1 × 10^8 CFU/mL, a 0.1-mL inoculum was injected into the right thighs of mice. At 2 h post-infection, mice (n = 6) were administered intraperitoneally (i.p.) with peptides at 2.5, 5, or 10 mg/kg. Mice raised without any treatment, or treated with PBS, 10 mg/kg DLP4, or vancomycin were used as the blank and negative and positive controls, respectively. At 24 h post-infection, peripheral blood was collected and serum was separated for cytokine levels analysis by using enzyme-linked immunosorbent assay (ELISA) kit (R&D systems, United States). Mice were euthanized, the right thighs were aseptically removed and processed for colonies counting ([Ling et al., 2015]).

[18] = test system: IL-10; test: Mouse thigh infection model, serum cytokine ELISA; format: in vivo, mouse (female CD-1); conditions: 10 mg/kg i.p., serum 24 h post-infection
Procedure: as §2, §3

[19] = test system: IL-6; test: Mouse thigh infection model, serum cytokine ELISA; format: in vivo, mouse (female CD-1); conditions: 10 mg/kg i.p., serum 24 h post-infection
Procedure: as §2, §3

[20] = test system: TNF-α; test: Mouse thigh infection model, serum cytokine ELISA; format: in vivo, mouse (female CD-1); conditions: 10 mg/kg i.p., serum 24 h post-infection
Procedure: as §2, §3

[21] = test system: Gram-negative bacteria; test: MIC, summary over Gram-negative strains; format: cell-based; conditions: E. coli and Salmonella strains of Table 2
Procedure: as §1

[22] = Drop-diffusion assay of antibacterial activity; format: cell-based

CC[C@H](C)[C@@H]1NC(=O)[C@@H]2CSSC[C@@H](C(=O)N[C@@H](CCCNC(=N)N)C(=O)N[C@@H](CCCCN)C(=O)O)NC(=O)[C@H](CC(N)=O)NC(=O)[C@@H]3CSSC[C@H](NC(=O)[C@H](C)NC(=O)[C@H](C)NC(=O)[C@H](Cc4c[nH]cn4)NC(=O)CNC(=O)[C@H](C(C)C)NC(=O)[C@H](CCCCN)NC(=O)[C@H](Cc4ccccc4)NC(=O)[C@@H]4CCCN4C(=O)[C@H](CO)NC(=O)[C@H](CC(C)C)NC(=O)[C@H](CC(C)C)NC(=O)[C@H](CC(=O)O)NC(=O)[C@@H](NC(=O)[C@@H](NC(=O)[C@H](C)N)[C@@H](C)O)CSSC[C@H](NC(=O)[C@H](Cc4c[nH]c5ccccc45)NC(=O)CNC(=O)CNC(=O)[C@H](CCCNC(=N)N)NC(=O)[C@H](CCCCN)NC(=O)CNC(=O)[C@H](CCCNC(=N)N)NC(=O)[C@H](C)NC1=O)C(=O)N[C@@H](CC(=O)O)C(=O)N[C@@H](CCCCN)C(=O)N[C@@H](CCCNC(=N)N)C(=O)N[C@@H](C)C(=O)N[C@@H](C(C)C)C(=O)N3)C(=O)N[C@@H](C)C(=O)N[C@@H](C)C(=O)N[C@@H](Cc1c[nH]cn1)C(=O)N2 [DLP4] (HELM PEPTIDE1{A.T.C.D.L.L.S.P.F.K.V.G.H.A.A.C.A.A.H.C.I.A.R.G.K.R.G.G.W.C.D.K.R.A.V.C.N.C.R.K}$PEPTIDE1,PEPTIDE1,3:R3-30:R3|PEPTIDE1,PEPTIDE1,16:R3-36:R3|PEPTIDE1,PEPTIDE1,20:R3-38:R3$$$V2.0; N-terminus and C-terminus assumed)
A1 (MIC against S. aureus ATCC 43300) [1]: 16 µg/mL | MIC ([2]; Table 1, – = no activity): 16 | MIC ([2]; microtiter, 37°C, 16∼20 h, triplicate): 3.75 µM (≈ 16 µg/mL) | MIC ([3]; 37°C): 14.99 µM (≈ 64 µg/mL) | MIC ([4]; 37°C): 3.75 µM (≈ 16 µg/mL) | MIC ([5]; 37°C): >29.98 µM | MIC [6]: >29.98 µM | MIC ([7]; 37°C): 7.50 µM (≈ 32 µg/mL) | MIC ([8]; 37°C): >29.98 µM | MIC [9]: >29.98 µM | hemolysis [10]: 0.61% | cell viability [11]: 63.8% | percentage of PI-positive cells [12]: 41.8% | level of released K+ [13]: 0.72 mg/L | peptide/gDNA mass ratio at which gDNA was completely blocked [14]: 2.5 | peptide/gDNA mass ratio at which migration of gDNA began to be retarded [14]: 0.5 | decrease of CFU counts within 1 h [15]: 2.7 log10 CFU/mL | PAE [16]: 8.20 ± 0.19 h | reduction of S. aureus in infected thigh muscles [17]: 1.7 log10 (CFU/g) | downregulation of serum level of IL-10 [18]: 29.06 pg/mL | downregulation of serum level of IL-6 [19]: 710.02 pg/mL | downregulation of serum level of TNF-α [20]: 1103.30 pg/mL | activity against Gram-negative bacteria [21]: no activity

ATCDLLSPFKVGHAACAAHCIARGKRSGWCDKRAVCNCRK (also: bicyclic or more (positions not given here)) [ID7, DLP4 derivative changed at a conservative site]
antibacterial activity [22]: no antibacterial activity

CN[C@H](CC(C)C)C(=O)N[C@H]1C(=O)N[C@@H](CC(N)=O)C(=O)N[C@H]2C(=O)N[C@H]3C(=O)N[C@H](C(=O)N[C@H](C(=O)O)c4cc(O)cc(O)c4-c4cc3ccc4O)[C@H](O)c3ccc(c(Cl)c3)Oc3cc2cc(c3O[C@@H]2O[C@H](CO)[C@@H](O)[C@H](O)[C@H]2O[C@H]2C[C@](C)(N)[C@H](O)[C@H](C)O2)Oc2ccc(cc2Cl)[C@H]1O [Vancomycin]
MIC ([2]; Staphylococcus aureus, CVCC546, 20 h): 0.67 µM and 1 µg/mL | MIC ([3]; Staphylococcus epidermidis, ATCC12228, 37°C): 0.67 µM and 1 µg/mL | MIC ([4]; Streptococcus suis, CVCC3928, 37°C): 0.17 µM and 0.25 µg/mL | MIC ([5]; Escherichia coli, ATCC25922, 37°C): 86.2 µM and 128 µg/mL | MIC ([6]; Salmonella enterica, PULLORUM): 86.2 µM and 128 µg/mL | MIC ([7]; Streptococcus pneumoniae, CVCC2350, 37°C): 0.34 µM and 0.5 µg/mL | MIC ([8]; Escherichia coli, K88, 37°C): 43.1 µM and 64 µg/mL | MIC ([9]; Salmonella enterica, ENTERITIDIS): 86.2 µM and 128 µg/mL | hemolysis [10]: 0.54% | cell viability [11]: 85.8% | percentage of PI-positive cells [12]: 5.1% | decrease of CFU counts within 1 h [15]: 0.22 log10 CFU/mL | PAE [16]: 1.36 ± 0.20 h | reduction of S. aureus in infected thigh muscles [17]: 0.77 log10 (CFU/g) | downregulation of serum level of IL-10 [18]: 15.82 pg/mL | downregulation of serum level of IL-6 [19]: 497.48 pg/mL | downregulation of serum level of TNF-α [20]: 1052.98 pg/mL
